Results reported in patent US20140329177A1, “CYCLIC COMPOUND, METHOD FOR PRODUCING SAME, RADIATION-SENSITIVE COMPOSITION, AND RESIST PATTERN FORMATION METHOD” (MITSUBISHI GAS CHEMICAL COMPANY, INC., priority 2011, published 2014).

Test: Solubility test of compound in safe solvent
Type: physicochemical
Settings: 23° C.; for dissolution amount in CHN: cyclohexanone (CHN); for dissolution amount in PGME: propylene glycol monomethyl ether (PGME)
Procedure: The dissolution amounts of compounds obtained in the above synthesis examples 1 to 4 and syntheses 1 and 2 in propylene glycol monomethyl ether (PGME) and cyclohexanone (CHN) were evaluated as follows.
A: 5.0% by mass≦dissolution amount B: 3.0% by mass≦dissolution amount<5.0% by mass C: dissolution amount<3.0% by mass
dissolution amount (% by mass)=mass (g) of compound dissolved in 100 g of solvent of 23° C./(100 g of mass of solvent+mass (g) of compound dissolved in 100 g of solvent of 23° C.)×100

SMILES | dissolution amount in CHN | dissolution amount in PGME
CC(C)c1ccc(C2c3cc(c(O)cc3O)C(c3ccc(C(C)C)cc3)c3cc(c(O)cc3O)C(c3ccc(C(C)C)cc3)c3cc(c(O)cc3O)C(c3ccc(C(C)C)cc3)c3cc2c(O)cc3O)cc1 (stereo not shown) [CR-1A] | C (dissolution amount<3.0% by mass) | B (3.0% by mass≦dissolution amount<5.0% by mass)
Oc1cc(O)c2cc1C(c1ccc(C3CCCCC3)cc1)c1cc(c(O)cc1O)C(c1ccc(C3CCCCC3)cc1)c1cc(c(O)cc1O)C(c1ccc(C3CCCCC3)cc1)c1cc(c(O)cc1O)C2c1ccc(C2CCCCC2)cc1 (stereo not shown) [CR-2A] | B (3.0% by mass≦dissolution amount<5.0% by mass) | B (3.0% by mass≦dissolution amount<5.0% by mass)
